Counter-ions that a name gives are not always drawn. Like-named read-outs stand apart in the source and are kept apart here.
Columns and labels:
[1] = test system: flexor reflex of the right anterior tibialis; assay: Depressing action for the spinal reflex of cat (flexor reflex); type: in vivo, cats; details: Felis catus, iv, read-out: Reflex inhibition, %
Description: Both male and female cats having a body weight of 2.5-4.0 kg were anesthetized with ether and then fixed in the supine position. In accordance with the method proposed by Shimamoto et al ["Yakurigaku Jisshu (Pharmacological Practice)", Nanzando Co., Ltd. (1960)], profound peroneal nerve-anterior peroneal nerve samples were prepared for the testing of flexor reflex. The flexor reflex of the right anterior tibialis was elicited by electrical stimulation (0.2 Hz, 1 ms, supra maximal voltage) of the central end of the ipsilateral femoral nerve. Under a static tension of 25 g, contractions of the corresponding anterior peroneal nerve were recorded on a polygraph. Assuming that the contraction force before the administration be 100%, the rate of flexor reflex inhibition was expressed in terms of percentage: [formula]
(§1) The test compounds were intravenously administered at 3 mg/kg.

[2] = test system: Tonic extension of the hind limbs; assay: Antiepileptic action (pentetrazole-induced tonic extension of the hind limbs); type: in vivo, ddy Male mice; details: Mus musculus, ip, 0.5 h, read-out: Antiepileptic action ED₅₀
Description: ddy Male mice (body weights: 25-30 g) were used. Test compounds were intraperitoneally administered. Thirty minutes later, pentetrazole (PTZ) was intraperitoneally administered at 170 mg/kg.
Tonic extension of the hind limbs was observed. [formula]
Effective dose for 50% of antiepileptic action, ED₅₀ (mg/kg) was calculated.

[3] = Central depressant action (spontaneous behavior, revolutionary wheel); parameters: species or system ddy Male mice; details: mouse, in vivo, ip; intraperitoneal administration; dose reducing the number of wheel revolutions in 20 minutes by 50%; read-out: Central depressant action ED₅₀
Description: Depressant action against spontaneous behavior using a revolutionary wheel was used as an index for central depressant action.
ddy Male mice (body weights: 25-30 g) were used. After intraperitoneal administration of each test compound, the mouse was immediately placed in a revolutionary wheel. The total number of revolutions of the wheel during a 20 minute period immediately after the placement of the mouse inside the wheel was counted.
Doses required to reduce the number of revolutions by 50%, ED₅₀ (mg/kg) were determined.

[4] = test system: decerebrate rigidity induced by radio frequency lesions of rat brains; assay: Decerebrate rigidity remission action (radio frequency lesion, method of Ono et al); type: in vivo, Wistar male rat; details: iv, intravenously administered at 3 mg/kg, tension before the administration = 100%
Description: Using the method proposed by Ono et al [H. Ono et al, Gen. Pharmacol., 18, 57 (1987)], rigidity remission action of the aminoketone derivatives of the invention for the decerebrate rigidity induced by radio frequency lesions of rat brains was investigated.
Each Wistar male rat (body weight: 300-400 g) was anesthetized with ether and then fixed on a stereotaxic apparatus. In accordance with the Pellegrino's stereo-taxic brain atlas, the electrodes of a lesion generator (manufactured by Radionics Company) were punctuated to AP: 0, L:±1.5, V:-3. […] The rigidified rat was fixed in the abdominal position and one of the hind legs was pushed 4-5 mm toward the head repeatedly once a minute. The tension of each extension reflex of the extensor of the hind limbs was recorded. Assuming that the tension before the administration be 100%, the rate of rigidity inhibition as expressed in terms of percentage: [formula]
as §1

[5] = Acute toxicity; details: mouse, in vivo, ip; intraperitoneally administered; alive or dead observed one day later; read-out: LD₅₀
Description: ddy Male mice (body weights: 25-30 g) were used. Each test compound was intraperitoneally administered. One day later, the mice were observed whether they were alive or dead.
50% lethal doses, LD₅₀ (mg/kg) were calculated.

[6] = test system: contraction of the bladder caused by a micturition reflex; assay: Micturition reflex depression action (bladder balloon, internal pressure); type: in vivo, Wistar male rats; details: injected through the common carotid vein, urethane-anesthetized rats, Mean ± S.E., 3 rats
Text: Wistar male rats having a body weight of 300 g were each anesthetized s.c. with 1.5 g/kg of urethane and fixed in the supine position. The hypogastrium was next subjected to median incision so that the bladder was exposed. A short cut was formed in a top part of the bladder, through which a balloon having an internal volume of about 1 mℓ was inserted. A catheter equipped with a three-way cock was connected to the balloon. A syringe was connected to another flow passage of the three-way cock, while a transducer ("Statham P-50", trade name) was connected to the remaining flow passage to permit the measurement of the internal pressure of the bladder.
After the rat was left over for at least 30 minutes after the operation, 0.25-0.5 mℓ of distilled water was injected into the balloon by means of the syringe. Variations in the internal pressure of the bladder, which were developed at that time due to spontaneous movement of the bladder, were recorded on a polygraph ("RM-6000", trade name; manufactured by Nihon Koden K.K.) by way of the transducer.
Each test compound was dissolved in physiological saline and injected through the common carotid vein. Effects of each test compound was expressed in terms of the time required until the disappearance of a contraction of the bladder caused by a micturition reflex.

[7] = intravenously administered at 3 mg/kg, contraction force before the administration = 100%
[8] = intraperitoneally administered 30 minutes before pentetrazole (PTZ) 170 mg/kg i.p.

CCC(CN1CCCC1)C(=O)c1snc2ccccc12 (centres unmarked) [Example 62]
inhibition in vivo at 3 mg/kg [1]: 90% | ED50 [2]: 23 mg/kg | ED50 at 20 min [3]: 50 mg/kg

CCC(CN1CCCC1)C(=O)c1cc(-c2ccc(C)o2)no1 (centres unmarked) [Example 38]
inhibition in vivo at 3 mg/kg [1, 7]: 38%

Cc1ccc(-c2cc(C(=O)C(C)CN3CCCC3)on2)o1 (centres unmarked) [Example 20, hydrochloride]
inhibition in vivo at 3 mg/kg [4]: 49% | inhibition in vivo at 3 mg/kg [1, 7]: 54% | ED50 at 20 min [3]: 49 mg/kg | LD50 at 24 h [5]: 170 to 300 mg/kg

CC(C)C(CN1CCCC1)C(=O)c1cc(-c2ccccc2)no1 (centres unmarked) [Example 46, 3-Phenyl-5-{2-(1-pyrrolidinylmethyl)-3-methylbutyryl}-isoxazole hydrochloride]
inhibition in vivo at 3 mg/kg [4]: 51% | inhibition in vivo at 3 mg/kg [1, 7]: 66%

CCc1ccc(C(=O)C(C)CN2CCCCC2)cc1 (centres unmarked) [Eperisone hydrochloride, eperisone hydrochloride, reference compound]
inhibition in vivo at 3 mg/kg [4]: 52% | inhibition in vivo at 3 mg/kg [1, 7]: 50% | ED50 [2, 8]: 30 mg/kg | Time required until disappearance ([6]; Dose 2 mg/kg): 2.4 ± 1.2 min | Time required until disappearance ([6]; Dose 4 mg/kg): 5.8 ± 2.1 min | ED50 at 20 min [3]: 33 mg/kg | LD50 at 24 h [5]: 100 to 170 mg/kg

CCCC(CN1CCCC1)C(=O)c1cc(-c2ccccc2)no1 (centres unmarked) [Example 47]
inhibition in vivo at 3 mg/kg [1]: 45%

CC(CN1CCCCC1)C(=O)c1cc(-c2ccccc2)no1.Cl (centres unmarked) [Example 1, 5-(2-methyl-3-piperidinopropionyl)-3-phenylisoxazole Hydrochloride]
inhibition in vivo at 3 mg/kg [4]: 40% | ED50 [2, 8]: 17 mg/kg | ED50 at 20 min [3]: 54 mg/kg | LD50 at 24 h [5]: 170 to 300 mg/kg

CCC(CN1CCCC1)C(=O)c1cc(-c2ccccc2)no1 (centres unmarked) [Example 28, 3-Phenyl-5-{2-(1-pyrrolidinylmethyl)butyryl} isoxazole hydrochloride]
inhibition in vivo at 3 mg/kg [4]: 62% | inhibition in vivo at 3 mg/kg [1, 7]: 79% | ED50 [2, 8]: 5 mg/kg | Time required until disappearance ([6]; Dose 2 mg/kg): 5.6 ± 1.2 min | Time required until disappearance ([6]; Dose 4 mg/kg): 10.1 ± 2.1 min | ED50 at 20 min [3]: 44 mg/kg | LD50 at 24 h [5]: 100 to 170 mg/kg

CC(CN1CCCCC1)C(=O)c1cc(C(=O)c2ccccc2)no1.Cl (centres unmarked) [Example 22, 3-benzoyl-5-(2-methyl-3-piperidinopropionyl)isoxazole hydrochloride]
inhibition in vivo at 3 mg/kg [4]: 41% | ED50 [2, 8]: 18 mg/kg | ED50 at 20 min [3]: 43 mg/kg

CCC(CN1CCCC1)C(=O)c1noc2ccccc12 (centres unmarked) [Example 58, 3-{2-(1-pyrrolidinylmethyl)butyryl} -1,2-benzisoxazole hydrochloride]
inhibition in vivo at 3 mg/kg [1]: 45%

CCC(CN1CCCC1)C(=O)c1cc(-c2ccccc2)on1 (centres unmarked) [Example 52]
inhibition in vivo at 3 mg/kg [4]: 61%

CCC(CN1CCCCC1)C(=O)c1cc(-c2ccccc2)no1 (centres unmarked) [Example 29]
inhibition in vivo at 3 mg/kg [4]: 53% | inhibition in vivo at 3 mg/kg [1, 7]: 70% | ED50 [2, 8]: 3 mg/kg | Time required until disappearance ([6]; Dose 2 mg/kg): 4.9 ± 1.2 min | Time required until disappearance ([6]; Dose 4 mg/kg): 8.6 ± 2.1 min | ED50 at 20 min [3]: 38 mg/kg | LD50 at 24 h [5]: 300 to 500 mg/kg

CC(CN1CCCC1)C(=O)c1snc2ccccc12 (centres unmarked) [Example 61]
inhibition in vivo at 3 mg/kg [1, 7]: 85% | ED50 [2, 8]: 11 mg/kg | ED50 at 20 min [3]: 37 mg/kg

CC(CN1CCCC1)C(=O)c1cc(-c2ccccc2)no1 (centres unmarked) [Example 5]
inhibition in vivo at 3 mg/kg [4]: 40% | ED50 [2, 8]: 20 mg/kg | ED50 at 20 min [3]: 44 mg/kg | LD50 at 24 h [5]: 100 to 170 mg/kg

COc1cccc(-c2cc(C(=O)C(C)CN3CCCC3)on2)c1 (centres unmarked) [Example 8]
inhibition in vivo at 3 mg/kg [4]: 38%

CC(CN1CCCCC1)C(=O)c1cc(Cc2ccccc2)no1.Cl (centres unmarked) [Example 21, 3-Benzyl-5-(2-methyl-3-piperidinopropionyl)isoxazole hydrochloride]
inhibition in vivo at 3 mg/kg [4]: 44% | ED50 at 20 min [3]: 52 mg/kg

Cc1onc(-c2ccccc2)c1C(=O)C(C)CN1CCCCC1.Cl (centres unmarked) [Example 68, 3-Phenyl-5-methyl-4-(2-methyl-3-piperidinopropionyl)isoxazole hydrochloride]
inhibition in vivo at 3 mg/kg [1, 7]: 56% | ED50 [2, 8]: 17 mg/kg

From patent EP0414391B1, “Aminoketone derivatives and use thereof” (MITSUI TOATSU CHEMICALS, Inc., priority 1989, dated 1991)
